Measured values taken from ChEMBL document CHEMBL4184103, “Cytotoxicity and inhibition of leukemic cell proliferation by sesquiterpenes from rhizomes of Mah-Lueang (Curcuma cf. viridiflora Roxb.)” (Bioorg Med Chem Lett, 2018).
Converted amounts (≈) assume the structure as drawn. “And” between values parts separate entries of the source, which are not always exact repeats. Equal values may be shown once.

Assays:
[1] = system: KG-1a; assay: Cytotoxicity against human KG1a cells assessed as reduction in cell viability after 48 hrs by MTT assay; assay type: functional, cell-based
[2] = system: MOLT-4; assay: Cytotoxicity against human MOLT4 cells assessed as reduction in cell viability after 48 hrs by MTT assay; assay type: functional, cell-based
[3] = system: KG-1a; assay: Potency index, ratio of doxorubicin IC50 to compound IC50 for human KG1a cells; assay type: functional
[4] = system: MOLT-4; assay: Potency index, ratio of doxorubicin IC50 to compound IC50 for human MOLT4 cells; assay type: functional
[5] = system: KG-1a; assay: Down regulation of WT1 protein levels in human KG1a cells after 48 hrs by Western blot analysis relative to control; assay type: functional
[6] = system: MOLT-4; assay: Down regulation of WT1 protein levels in human MOLT4 cells after 48 hrs by Western blot analysis relative to control; assay type: functional
[7] = system: HeLa; assay: Growth inhibition of human HeLa cells after 48 hrs by MTT assay; assay type: functional, cell-based
[8] = system: HepG2; assay: Growth inhibition of human HepG2 cells after 48 hrs by MTT assay; assay type: functional, cell-based; conditions: HepG2, 48 h
[9] = system: HL-60; assay: Growth inhibition of human HL60 cells after 48 hrs by MTT assay; assay type: functional, cell-based; conditions: HL-60, 48 h
[10] = system: PC-3; assay: Growth inhibition of human PC3 cells after 48 hrs by MTT assay; assay type: functional, cell-based; conditions: PC-3, 48 h
[11] = system: SGC-7901; assay: Growth inhibition of human SGC7901 cells after 48 hrs by MTT assay; assay type: functional, cell-based; conditions: SGC-7901, 48 h
[12] = system: HT-1080; assay: Growth inhibition of human HT1080 cells after 48 hrs by MTT assay; assay type: functional, cell-based; conditions: HT-1080, 48 h
[13] = system: KG-1a; assay: Antiproliferative activity against human KG1a cells at IC20 after 48 hrs by trypan blue exclusion assay relative to control; assay type: functional
[14] = system: MOLT-4; assay: Antiproliferative activity against human MOLT4 cells at IC20 after 48 hrs by trypan blue exclusion assay relative to control; assay type: functional
[15] = system: MOLT-4; assay: Cytotoxicity against human MOLT4 cells assessed as reduction in cell viability; assay type: functional, cell-based
[16] = system: MCF7; assay: Cytotoxicity against human MCF7 cells assessed as reduction in cell viability after 72 hrs by MTT assay; assay type: functional, cell-based
[17] = system: PC-3; assay: Cytotoxicity against human PC3 cells assessed as reduction in cell viability after 72 hrs by MTT assay; assay type: functional, cell-based
[18] = system: HT-29; assay: Cytotoxicity against human HT-29 cells assessed as reduction in cell viability after 72 hrs by MTT assay; assay type: functional, cell-based
[19] = system: HUVEC; assay: Cytotoxicity against human HUVEC cells assessed as reduction in cell viability after 72 hrs by MTT assay; assay type: functional, cell-based
[20] = system: KB; assay: Cytotoxicity against human KB cells assessed as reduction in cell viability; assay type: functional, cell-based
[21] = system: MCF7; assay: Cytotoxicity against human MCF7 cells assessed as reduction in cell viability; assay type: functional, cell-based
[22] = system: NCI-H187; assay: Cytotoxicity against human NCI-H187 cells assessed as reduction in cell viability; assay type: functional, cell-based
[23] = system: Ca-Ski; assay: Cytotoxicity against human CaSki cells assessed as reduction in cell viability after 72 hrs by MTT assay; assay type: functional, cell-based
[24] = system: MOLT-4; assay: Down regulation of WT1 protein levels in human MOLT4 cells at 5 to 15 uM after 48 hrs by Western blot analysis relative to control; assay type: functional
[25] = Homo sapiens, MOLT-4, 48 h, read-out: IC50

SMILES | IC20 [1] | IC50 [1] | IC50 [2, 25] | IC50 ([2]; molt-4) | Activity [5] | Activity [6] | Activity [13] | Activity [14] | other results
C/C1=C\Cc2c(C)coc2C/C(C)=C/CC1 [ISOFURANODIENE] | 25 µg/mL (≈ 116 µM) | 50.1 µg/mL (≈ 232 µM) | 39.6 µg/mL (≈ 183 µM) | 23 µg/mL (≈ 106 µM) | 58.08% | 32.17% | 19.58% | 10.74% | Ratio IC50 [3]: 77; Ratio IC50 [4]: 86; IC50 [7]: 0.6 to 4 µg/mL (≈ 2.77 to 18.5 µM); IC50 [8]: 0.6 to 4 µg/mL (≈ 2.77 to 18.5 µM); IC50 [9]: 0.6 to 4 µg/mL (≈ 2.77 to 18.5 µM); IC50 [10]: 0.6 to 4 µg/mL (≈ 2.77 to 18.5 µM); IC50 [11]: 0.6 to 4 µg/mL (≈ 2.77 to 18.5 µM); IC50 [12]: 0.6 to 4 µg/mL (≈ 2.77 to 18.5 µM)
CC[C@]1(O)C[C@H]2CN(CCc3c([nH]c4ccccc34)[C@@](C(=O)OC)(c3cc4c(cc3OC)N(C=O)[C@H]3[C@@](O)(C(=O)OC)[C@H](OC(C)=O)[C@]5(CC)C=CCN6CC[C@]43[C@@H]65)C2)C1 [VINCRISTINE] | – | – | – | – | – | – | – | – | IC50 [15]: 0.00063 µg/mL (≈ 0.000764 µM)
CC(C)=C1C[C@@H]2O[C@@]2(C)CC/C=C(\C)CC1=O | 20 µg/mL (≈ 85.3 µM) | > 100 µg/mL | > 100 µg/mL | 53 µg/mL (≈ 226 µM) | 92.22% | 62.53% | 24.27% | 55.7% | IC50 ([16]; Homo sapiens, MCF7, 72 h): 37.2 µg/mL (≈ 159 µM); IC50 ([17]; Homo sapiens, PC-3, 72 h): 43.9 µg/mL (≈ 187 µM); IC50 ([18]; Homo sapiens, HT-29, 72 h): 39.6 µg/mL (≈ 169 µM); IC50 ([19]; Homo sapiens, HUVEC, 72 h): 48.4 µg/mL (≈ 207 µM)
CC(C)=C1C[C@H]2[C@@H](CC[C@]2(C)O)[C@](C)(O)CC1=O [ZEDOARONDIOL] | 60 µg/mL (≈ 238 µM) | > 100 µg/mL | 77.6 µg/mL (≈ 308 µM) | 49 µg/mL (≈ 194 µM) | 95.52% | 63.17% | 30.48% | 48.99% | IC50 [20]: > 50 µg/mL; IC50 [21]: > 50 µg/mL; IC50 [22]: > 50 µg/mL
CC(C)=C1CC(=O)[C@@H](C)CC/C=C(\C)CC1=O | 30 µg/mL (≈ 128 µM) | > 100 µg/mL | – | > 100 µg/mL and 35 µg/mL | 44.3% | 55.25% | 19.92% | 49.44% | IC50 ([16]; mcf7): 33 µg/mL (≈ 141 µM); IC50 [23]: 21.7 µg/mL (≈ 92.6 µM); IC50 ([17]; pc-3): 19.1 µg/mL (≈ 81.5 µM); IC50 ([18]; ht-29): 22.7 µg/mL (≈ 96.9 µM); IC50 ([19]; huvec): 24 µg/mL (≈ 102 µM)
COc1cccc2c1C(=O)c1c(O)c3c(c(O)c1C2=O)C[C@@](O)(C(=O)CO)C[C@@H]3O[C@H]1C[C@H](N)[C@H](O)[C@H](C)O1 [DOXORUBICIN] | – | 0.65 µg/mL (≈ 1.2 µM) | 0.46 µg/mL (≈ 0.846 µM) | – | – | – | – | – | –
COc1cc(/C=C/C(=O)CC(=O)/C=C/c2ccc(O)c(OC)c2)ccc1O [CURCUMIN] | – | – | – | – | – | – | – | – | Activity [24]: 90%
